The values that follow come from patent US20230114728A1 (Venatorx Pharmaceuticals, Inc., priority 2019, published 2023).

Structures are written as SMILES. ≈ marks a conversion by molar mass, not a printed value.

The subject of one assay is P. aeruginosa CDC-0110. The experiment in a line: Broth microdilution MIC in iron-depleted CAMHB (IDM). Type of assay: cell-based. To be noted: Pseudomonas aeruginosa, CDC0110, read-out: Minimum Inhibitory Concentration, P. aeruginosa CDC-0110. How it is done:
(§1) To determine the ability of test compounds to inhibit the growth bacterial strains under conditions of iron-depletion, classic cell based broth microdilution minimum inhibitory concentration (MIC) assays were employed. MIC assays are performed according to CLSI methods except where otherwise noted (CLSI, 2018 and CLSI, 2019). The reference type strain E. coli ATCC 25922 was used to determine the ability of the PBP inhibitors to inhibit the growth of Enterobacteriaceae. Wild-type P. aeruginosa ATCC 27853, A. baumannii ATCC 17978 and A. baumannii ATCC 19606, along with the hyper-permeable P. aeruginosa ATCC 35151, an engineered efflux pump-compromised strain of P. aeruginosa (ΔmexAB-oprM), and an engineered efflux-pump compromised strain of A. baumannii IL123 (ABΔ3-ARAEcPore) were used to determine the ability of PBP inhibitors to penetrate the outer membrane of P. aeruginosa and A. baumannii and assess antibacterial activity against these important gram-negative organisms.
(§2) Briefly, cryo-preserved bacterial cultures of challenge strains are streaked for isolation on appropriate agar medium, in this case cation-adjusted Mueller Hinton agar. Following incubation to allow growth of the colonies, plates are sealed with parafilm and stored refrigerated for up to two weeks. For preparation of assay inoculum and to ensure low variability, at least 5 colonies are picked from the agar plates with an inoculating loop and aseptically transferred to a culture tube containing 3 mL of iron-depleted cation-adjusted Mueller Hinton broth (IDM)—see below for IDM preparation. The broth culture is grown for 3-5 hours at 37° C. with shaking at 200 rpm. Meanwhile, 2-fold serial dilutions of test compounds are conducted in a 96-well plate with a final volume of 75 μL per well at 2-fold the final desired concentration. After the dilution plates are set up the growing cultures are then diluted in a cuvette containing IDM and the optical density is measured at 600 nm. The inoculum is diluted such that 75 μL of this culture in IDM results in a starting bacterial concentration of 2-8×10^5 CFU/mL when added to the dilution plates. The plates are incubated for 16-20 hours for Enterobacteriaceae and Pseudomonas and 20-24 hours for Acinetobacter at 37° C. The MIC values are read visually as the lowest concentration well with no bacterial growth.
(§3) Method for Iron-Depleted Cation-Adjusted Mueller Hinton Broth (IDM) Preparation:
(§4) • Prepare cation-adjusted Mueller Hinton broth as per the manufacturer's recommendations and autoclave. • Add 100 g/L Chelex 100 resin, cover with foil and incubate with stirring for 2 hours • Remove Chelex 100 resin by filtration with 0.45 μm filter flask • Add the following back to the medium: • CaCl2 dihydrate: 82.5 mg/L • MgCl2 hexahydrate: 94.1 mg/L • ZnSO4: 10 μM • Adjust pH of medium to 7.3 with 5 N HCl • Sterilize using a 0.22 µm filter flask
A general note: In broth dilution the organism is exposed to a series of concentrations in liquid medium.

Another assay concerns P. aeruginosa ATCC 35151. Described as above. It is filed as cell-based. The note with it: Pseudomonas aeruginosa, ATCC35151; iron-depleted MHB (IDM); hyper-permeable strain; read-out: Minimum Inhibitory Concentration, P. aeruginosa ATCC 35151. On the procedure: (§5) Example IV: In Vitro Antibacterial Assays in Iron-Depleted Cation-Adjusted Mueller-Hinton Broth
as §1, §2, §3, §4

A further assay deals with P. aeruginosa ATCC 27853. The assay is described as above. Type of assay: cell-based. To be noted: Pseudomonas aeruginosa, ATCC27853, read-out: Minimum Inhibitory Concentration, P. aeruginosa ATCC 27853. On the procedure:
as §5, §1, §2, §3, §4

The subject of assay [1] is P. aeruginosa CDC-0054 producing VIM-4, OXA-50, and PAO. The assay is described as above. It is filed as cell-based. The note with it: Pseudomonas aeruginosa, read-out: Minimum Inhibitory Concentration, P. aeruginosa CDC-0054. On the procedure: as §5, §1, §2, §3, §4
Assay [2] has as its system A. baumannii CDC-0036 OXA-65, and OXA-24. The assay is described as above. Type of assay: cell-based. The note with it: Acinetobacter baumannii, read-out: Minimum Inhibitory Concentration, CDC-0036. How it is done:
as §5, §1, §2, §3, §4

For another assay, the system named is A. baumannii ATCC 19606. Described as above. To be noted: Acinetobacter baumannii, ATCC19606, read-out: Minimum Inhibitory Concentration, ATCC 19606. It is filed as cell-based. How it is done:
as §5, §1, §2, §3, §4

The next assay relates to A. baumannii ATCC 17978. The assay is described as above. It is filed as cell-based. To be noted: Acinetobacter baumannii, ATCC17978, read-out: Minimum Inhibitory Concentration, ATCC 17978. On the procedure: as §5, §1, §2, §3, §4
Assay [3] has as its system A. baumannii CDC-0033 producing NDM-1, and OXA-94. The description is as above. It is filed as cell-based. To be noted: Acinetobacter baumannii, read-out: Minimum Inhibitory Concentration, CDC-0033. On the procedure:
as §5, §1, §2, §3, §4

Assay [4] concerns P. aeruginosa CDC-0095 producing OXA-50, and PAO. The description is as above. It is filed as cell-based. The note with it: Pseudomonas aeruginosa, read-out: Minimum Inhibitory Concentration, P. aeruginosa CDC-0095. On the procedure: as §5, §1, §2, §3, §4
Assay [5] concerns P. aeruginosa (ΔmexAB-oprM). Described as above. It is filed as cell-based. To be noted: Pseudomonas aeruginosa, read-out: Minimum Inhibitory Concentration, P. aeruginosa ΔmexAB-OprM. How it is done: as §5, §1, §2, §3, §4
Assay [6] has as its system A. baumannii CDC-0083 producing NDM-1, PER-7, OXA-23, and OXA-69. The description is as above. To be noted: Acinetobacter baumannii, read-out: Minimum Inhibitory Concentration, CDC-0083. It is filed as cell-based. On the procedure:
as §5, §1, §2, §3, §4

Assay [7] is described as follows: Bocillin-FL fluorescence polarization competition binding assay, A. baumannii PBP3. To be noted: fluorescence polarization competition binding assay using Bocillin-FL; column 3; read-out: 4. baumannii PBP1a Potency. An excerpt: Example I: Experimental Method for Penicillin-Binding Protein Binding Assays with Bocillin-FL Via Fluorescence Polarization
To determine the ability of boronic acid-based test PBP inhibitors to bind Penicillin Binding Proteins (PBPs), Bocillin-FL (fluorescently-labeled penicillin V; ThermoFisher Scientific) was used in a fluorescence polarization (FP) competition binding assay to assess inhibitor binding to PBP2, PBP3 or PBP4 from Escherichia coli (K12), PBP3 from Pseudomonas aeruginosa (PA01), PBP1a, PBP2 and PBP3 from Acinetobacter baumannii (ATCC 19606), and PBP2 from Neiserria gonorrheae (FA19). PBPs were cloned and purified as described previously (E. coli PBPs, King, D. T, et al., ACS Infectious Diseases 2015, 1, 175-184; P. aeruginosa PBP3, Han et. al., PNAS 2010, 107 (51), 22002-22007; A. baumannii PBPs, Penwell et. al., Antimicrob. Agents Chemother. 2015, 59 (3), 1680-1689; N. gonorrhoeae PBP2, Singh et. al., J Biol. Chem. 2019, 294 (38), 14020-14032). To establish assay conditions for competition binding, enzyme titration/saturation binding experiments were initially performed. Bocillin-FL was prepared at 0.2 μM in a buffer comprised of 50 mM Hepes (pH 8.0), 300 mM NaCl and 5% (v/v) glycerol for reactions with E. coli, P. aeruginosa and N. gonorrhoeae PBPs, and 25 mM Tris (pH 8.0), 200 mM NaCl and 10% (v/v) glycerol and 0.005% (v/v) Tween 20 for reactions with A. baumannii PBPs. Saturation binding was performed by mixing 40 μl of PBP solutions ranging in concentrations from 0-24 μM with 40 μl of the 0.2 μM Bocillin-FL solution, in individual wells of a black 384-well microplate. FP was measured immediately upon mixing (Excitation, 490 nm; Emission, 520 nm; g-factor, 0.96), using a Cytation3 (BioTek) microplate reader and measured continuously for up to 120 minutes. […] The competition binding assay (80 μl final volume) was validated using beta-lactams and PBPs at final concentrations of: 1.5 μM, E. coli PBP3; 0.75 μM, P. aeruginosa PBP3; 1 μM A. baumannii PBP1a; 2.5 μM A. baumannii PBP2; 0.2 μM A. baumannii PBP3; and […] N. gonorrhoeae PBP2. Bocillin-FL was at 0.1 μM (0.05 μM with A. baumannii PBP1a) and beta-lactam concentrations ranged from 0-1000 μM. […] Bocillin-FL was added and the FP immediately measured for up to 60 minutes (90 minutes for E. coli PBP2). […] The beta-lactam potency was reported as the concentration of beta-lactam required to reduce the amount of PBP bound-Bocillin-FL by 50% (EC50). […] Binding assays for boronic acid PBP inhibitors were performed in an identical fashion for the respective PBPs
On the technique in general: In fluorescence polarisation assays a small probe gives low polarisation when free and higher when bound to something large.

Assay [8] deals with A. baumannii CDC-0045 producing TEM-1D, OXA-23, and OXA-69. Nature of the assay: Broth microdilution MIC in iron-depleted CAMHB (IDM). Type of assay: cell-based. To be noted: Acinetobacter baumannii, read-out: Minimum Inhibitory Concentration, CDC-0045.

Regarding `NCCCN1CCN(C(=O)N[C@@H](C(=O)N[C@H]2Cc3ccc(F)c(C(=O)O)c3OB2O)c2c(F)c(F)c(O)c(O)c2Cl)C(=O)C1=O` [Example 227, (R)-3-((R)-2-(4-(3-aminopropyl)-2,3-dioxopiperazine-1-carboxamido)-2-(2-chloro-5,6-difluoro-3,4-dihydroxyphenyl)acetamido)-7-fluoro-2-hydroxy-3,4-dihydro-2H-benzo[e][1,2]oxaborinine-8-carboxylic acid], the MIC in the assay on P. aeruginosa CDC-0110 was 0.25 µg/mL (≈ 0.38 µM); in the assay with P. aeruginosa ATCC 35151, 0.25 µg/mL (≈ 0.38 µM); with P. aeruginosa ATCC 27853, 0.5 to 1 µg/mL (≈ 0.76 to 1.52 µM); in [1], 0.5 to 1 µg/mL (≈ 0.76 to 1.52 µM); in assay [2], 2 to 4 µg/mL (≈ 3.04 to 6.08 µM); in the assay on A. baumannii ATCC 19606 it was 0.25 µg/mL (≈ 0.38 µM). The MIC in the assay on A. baumannii ATCC 17978 was 0.25 µg/mL (≈ 0.38 µM); in assay [3], 8 to 16 µg/mL (≈ 12.2 to 24.3 µM); in [4], 2 to 4 µg/mL (≈ 3.04 to 6.08 µM); in [5] it was 0.25 µg/mL (≈ 0.38 µM); in assay [6] it was 2 to 4 µg/mL (≈ 3.04 to 6.08 µM); in assay [8] it was 2 to 4 µg/mL (≈ 3.04 to 6.08 µM). In assay [7], the EC50 was over 100 µM.
Consider `CCN1CCN(C(=O)N[C@@H](C(=O)N[C@H]2Cc3ccc(F)c(C(=O)O)c3OB2O)c2c(F)c(F)c(O)c(O)c2Cl)C(=O)C1=O` [Example 228, (R)-3-((R)-2-(2-chloro-5,6-difluoro-3,4-dihydroxyphenyl)-2-(4-ethyl-2,3-dioxopiperazine-1-carboxamido)acetamido)-7-fluoro-2-hydroxy-3,4-dihydro-2H-benzo[e][1,2]oxaborinine-8-carboxylic acid], for which the MIC in the assay on P. aeruginosa CDC-0110 is 0.5 to 1 µg/mL (≈ 0.795 to 1.59 µM); with P. aeruginosa ATCC 35151 it was 0.25 µg/mL (≈ 0.398 µM); with P. aeruginosa ATCC 27853 it was 0.5 to 1 µg/mL (≈ 0.795 to 1.59 µM); in assay [1] it was 2 to 4 µg/mL (≈ 3.18 to 6.36 µM); in assay [2] it was 2 to 4 µg/mL (≈ 3.18 to 6.36 µM); in the assay with A. baumannii ATCC 19606, 0.25 µg/mL (≈ 0.398 µM). The MIC was 0.5 to 1 µg/mL (≈ 0.795 to 1.59 µM) in the assay with A. baumannii ATCC 17978; 2 to 4 µg/mL (≈ 3.18 to 6.36 µM) in [3]; 0.25 µg/mL (≈ 0.398 µM) in [5]; 2 to 4 µg/mL (≈ 3.18 to 6.36 µM) in assay [6]; 2 to 4 µg/mL (≈ 3.18 to 6.36 µM) in assay [8]. For the same compound, the EC50 in assay [7] fell in the range of 10 to 30 µM.
As for `CS(=O)(=O)N1CCN(C(=O)N[C@@H](C(=O)N[C@H]2Cc3ccc(F)c(C(=O)O)c3OB2O)c2c(F)c(F)c(O)c(O)c2Cl)C1=O` [Example 229, (R)-3-((R)-2-(2-chloro-5,6-difluoro-3,4-dihydroxyphenyl)-2-(3-(methylsulfonyl)-2-oxoimidazolidine-1-carboxamido)acetamido)-7-fluoro-2-hydroxy-3,4-dihydro-2H-benzo[e][1,2]oxaborinine-8-carboxylic acid], the MIC in the assay with P. aeruginosa CDC-0110 is 0.5 to 1 µg/mL (≈ 0.768 to 1.54 µM); with P. aeruginosa ATCC 35151, 0.25 µg/mL (≈ 0.384 µM); in the assay on P. aeruginosa ATCC 27853, 0.5 to 1 µg/mL (≈ 0.768 to 1.54 µM); in assay [1], 2 to 4 µg/mL (≈ 3.07 to 6.15 µM); in [2], 2 to 4 µg/mL (≈ 3.07 to 6.15 µM); with A. baumannii ATCC 19606, 0.5 to 1 µg/mL (≈ 0.768 to 1.54 µM). Moreover, the MIC in the assay on A. baumannii ATCC 17978 was 0.25 µg/mL (≈ 0.384 µM); in assay [3] it was 2 to 4 µg/mL (≈ 3.07 to 6.15 µM); in assay [5], 0.25 µg/mL (≈ 0.384 µM); in assay [6], 2 to 4 µg/mL (≈ 3.07 to 6.15 µM); in assay [8], 8 to 16 µg/mL (≈ 12.3 to 24.6 µM). In addition, in [7], the EC50 was 10 to 30 µM.
